Experimental data: ChEMBL document CHEMBL1201862, “PubChem BioAssay data set” (2004)
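Each compound was tested at five concentrations against cells in 96-well plates for 48 hours. At the GI50, growth is halved.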 Activity calls are given as the source filed them. Rule as the data show it: active = GI50 up to about 1.1 µM and inactive = higher.

Experiments:
Experiment in all cases: growth of human tumour cells (NCI), 48 h
786-0 = system: 786-0
A498 = system: A498
CAKI-1 = system: CAKI-1
EKVX = system: EKVX
HCT-15 = system: HCT-15
Hs-578T = system: Hs-578T
K562 = system: K562
MDA-MB-231 = system: MDA-MB-231
MOLT-4 = system: MOLT-4
Malme-3M = system: Malme-3M
NCI-H226 = system: NCI-H226
NCI-H23 = system: NCI-H23
OVCAR-8 = system: OVCAR-8
PC-3 = system: PC-3
SF-268 = system: SF-268
SF-295 = system: SF-295
SK-MEL-28 = system: SK-MEL-28
SK-OV-3 = system: SK-OV-3
HOP-92 = system: HOP-92

| SMILES | GI50 (786-0) | GI50 (A498) | GI50 (CAKI-1) | GI50 (EKVX) | GI50 (HCT-15) | GI50 (Hs-578T) | GI50 (K562) | GI50 (MDA-MB-231) | GI50 (MOLT-4) | GI50 (Malme-3M) | GI50 (NCI-H226) | GI50 (NCI-H23) | GI50 (OVCAR-8) | GI50 (PC-3) | GI50 (SF-268) | GI50 (SF-295) | GI50 (SK-MEL-28) | GI50 (SK-OV-3) | GI50 (HOP-92) |
| --- | --- | --- | --- | --- | --- | --- | --- | --- | --- | --- | --- | --- | --- | --- | --- | --- | --- | --- | --- |
| Cc1ccc(S(=O)(=O)N(CC(O)COc2ccccc2)c2ccccc2Cl)cc1 (stereo not drawn) | 18.4 µM (inactive) | 17.7 µM (inactive) | 15.5 µM (inactive) | 13.6 µM (inactive) | 15.8 µM | 10.9 µM (inactive) | 11.6 µM (inactive) | 14.6 µM (inactive) | 19.8 µM (inactive) | 14.5 µM (inactive) | 14.9 µM (inactive) | 14.7 µM (inactive) | 16.3 µM (inactive) | 15.9 µM (inactive) | 17.1 µM (inactive) | 24.3 µM (inactive) | 15.6 µM (inactive) | 23.8 µM (inactive) |  |
| CCNc1nc2ccccc2nc1NCC | > 100 µM (inactive) | > 100 µM (inactive) | > 100 µM (inactive) | > 100 µM (inactive) | > 100 µM | > 100 µM (inactive) | > 100 µM (inactive) | > 100 µM (inactive) | > 100 µM (inactive) | > 100 µM (inactive) | > 100 µM (inactive) | > 100 µM (inactive) | > 100 µM (inactive) | > 100 µM (inactive) | > 100 µM (inactive) | > 100 µM (inactive) | > 100 µM (inactive) | > 100 µM (inactive) |  |
| CN(C)c1ncnc2c1ncn2CCn1cnc2c(N(C)C)ncnc21 | > 100 µM (inactive) | > 100 µM (inactive) | > 100 µM (inactive) | > 100 µM (inactive) | > 100 µM | > 100 µM (inactive) |  | > 100 µM (inactive) | < 0.01 µM (active) | > 100 µM (inactive) |  | > 100 µM (inactive) | > 100 µM (inactive) | > 100 µM (inactive) | > 100 µM (inactive) | > 100 µM (inactive) | > 100 µM (inactive) | > 100 µM (inactive) | > 100 µM (inactive) |
| CCCCCCCCCCCCCCCC[N+](C)(C)Cc1ccc(F)cc1 | 1.47 µM (inactive) | 26.2 µM (inactive) | 2.7 µM (inactive) | 2 µM (inactive) | 8.43 µM | 1.89 µM (inactive) | 1.26 µM (inactive) | 1.32 µM (inactive) | 1.46 µM (inactive) |  | 2.15 µM (inactive) | 2.16 µM (inactive) | 1.51 µM (inactive) | 1.11 µM (active) | 1.56 µM (inactive) | 2.37 µM (inactive) | 3.08 µM (inactive) | 2.2 µM (inactive) | 1.27 µM (inactive) |
| C=CCCC(=O)CC(O)(C(F)(F)F)C(F)(F)F | > 100 µM (inactive) | > 100 µM (inactive) | > 100 µM (inactive) | > 100 µM (inactive) | > 100 µM | > 100 µM (inactive) | > 100 µM (inactive) | > 100 µM (inactive) | > 100 µM (inactive) | > 100 µM (inactive) | > 100 µM (inactive) | > 100 µM (inactive) | > 100 µM (inactive) | > 100 µM (inactive) |  | > 100 µM (inactive) | > 100 µM (inactive) | > 100 µM (inactive) | > 100 µM (inactive) |
| O=C(CNc1ccccc1Cl)Nn1c(-c2ccccc2)nc2ccccc2c1=O | 19.7 µM (inactive) | 49.8 µM (inactive) |  | 18.6 µM (inactive) |  | 25.6 µM (inactive) | 23.2 µM (inactive) | > 10 µM (inactive) | 13.2 µM (inactive) |  | 28.5 µM (inactive) | 16.4 µM (inactive) | 40.7 µM (inactive) | 20.7 µM (inactive) | 30.1 µM (inactive) | 31.4 µM (inactive) | 21.2 µM (inactive) | 38.1 µM (inactive) | 13.4 µM (inactive) |
| CCCCCCCCCCCCCCCCOCC(COP(=O)(O)OCC1OC(n2cc(CC)c(=O)[nH]c2=O)CC1O)OC(=O)CCCCCCCCCCCCCCC (stereo not drawn) | > 100 µM (inactive) | > 100 µM (inactive) | > 100 µM (inactive) | > 100 µM (inactive) | > 100 µM | > 100 µM (inactive) | > 100 µM (inactive) | > 100 µM (inactive) | > 100 µM (inactive) |  | > 100 µM (inactive) | > 100 µM (inactive) | > 100 µM (inactive) | > 100 µM (inactive) | > 100 µM (inactive) | > 100 µM (inactive) | > 100 µM (inactive) | > 100 µM (inactive) | > 100 µM (inactive) |
| CC1=C(\C=C/C(C)=C/C=C/C(C)=C/C=C/C=C(C)\C=C\C=C(C)/C=C/C2=C(C)CCCC2(C)C)C(C)(C)CCC1 | > 100 µM (inactive) | > 100 µM (inactive) |  |  | > 100 µM | 88.9 µM (inactive) | > 100 µM (inactive) | > 100 µM (inactive) | > 100 µM (inactive) | > 100 µM (inactive) | > 100 µM (inactive) | 34.2 µM (inactive) | > 100 µM (inactive) | > 100 µM (inactive) | > 100 µM (inactive) | > 100 µM (inactive) | 46.5 µM (inactive) | > 100 µM (inactive) |  |
| O=S(=O)(NNc1ccccc1)c1ccccc1 | 52.6 µM (inactive) | 81.5 µM (inactive) | 1.28 µM (inactive) | 14.4 µM (inactive) | 11.5 µM | 61 µM (inactive) | 4.23 µM (inactive) | 1.36 µM (inactive) | 26.5 µM (inactive) |  | 4.12 µM (inactive) | 25.5 µM (inactive) | 28.5 µM (inactive) | 8.15 µM (inactive) | 38.5 µM (inactive) | 0.646 µM (active) | 48.2 µM (inactive) | 65.3 µM (inactive) | 19.1 µM (inactive) |
| Cc1nc2ccc(Cl)cc2c(-n2ccnc2)c1CCn1ccnc1 | 1.69 µM (inactive) | 21.5 µM (inactive) | 63.1 µM (inactive) |  | 22.7 µM | 12.9 µM (inactive) | 23.2 µM (inactive) | 17.8 µM (inactive) |  | 31.1 µM (inactive) | 16.4 µM (inactive) | 27.1 µM (inactive) | 1.75 µM (inactive) | 22.1 µM (inactive) | 30.2 µM (inactive) | 34.2 µM (inactive) | 29.9 µM (inactive) | 31 µM (inactive) | 15.9 µM (inactive) |
| COc1cc2c(cc1OC)-c1[nH]c3ccc([N+](=O)[O-])cc3c1CC(=O)N2 | 2.35 µM (inactive) | 2.98 µM (inactive) | 2.89 µM (inactive) | 5.87 µM (inactive) | 2.11 µM | 0.2 µM (active) | 1.3 µM (inactive) | 4.15 µM (inactive) | 1.56 µM (inactive) |  | 0.78 µM (active) | 4.33 µM (inactive) | 2.82 µM (inactive) | 3.29 µM (inactive) | 0.881 µM (active) | 3.53 µM (inactive) | 6.19 µM (inactive) | 3.15 µM (inactive) |  |
| COC1=CC2(C=CC1=O)CCNC1=C2C(=O)c2nc[nH]c2C1=O (stereo not drawn) | > 100 µM (inactive) | > 100 µM (inactive) | > 100 µM (inactive) | > 100 µM (inactive) | > 100 µM | > 100 µM (inactive) | > 100 µM (inactive) | > 100 µM (inactive) | > 100 µM (inactive) | > 100 µM (inactive) |  | > 100 µM (inactive) | > 100 µM (inactive) | > 100 µM (inactive) | > 100 µM (inactive) | > 100 µM (inactive) | > 100 µM (inactive) | > 100 µM (inactive) | > 100 µM (inactive) |
| CC(C)(C)CNCCO | > 100 µM (inactive) | > 100 µM (inactive) | > 100 µM (inactive) | > 100 µM (inactive) | > 100 µM | > 100 µM (inactive) |  | > 100 µM (inactive) |  | > 100 µM (inactive) | > 100 µM (inactive) | > 100 µM (inactive) | > 100 µM (inactive) | > 100 µM (inactive) | > 100 µM (inactive) | > 100 µM (inactive) | > 100 µM (inactive) | > 100 µM (inactive) | > 100 µM (inactive) |
| COC(=O)C1Cc2ccc(C)cc2C1=O (stereo not drawn) | > 100 µM (inactive) | > 100 µM (inactive) | > 100 µM (inactive) | > 100 µM (inactive) | > 100 µM | > 100 µM (inactive) | > 100 µM (inactive) | > 100 µM (inactive) | > 100 µM (inactive) | > 100 µM (inactive) | > 100 µM (inactive) | > 100 µM (inactive) | > 100 µM (inactive) | > 100 µM (inactive) | > 100 µM (inactive) | > 100 µM (inactive) | > 100 µM (inactive) | > 100 µM (inactive) |  |
| C[C@@H]1OC(=O)C[C@H]2CC(=O)N(CCC3CN(C(=O)c4ccccc4)c4ccccc43)C[C@@H]21 (stereo partly drawn) | > 100 µM (inactive) | > 100 µM (inactive) | > 100 µM (inactive) | > 100 µM (inactive) | > 100 µM | > 100 µM (inactive) | > 100 µM (inactive) | > 100 µM (inactive) | > 100 µM (inactive) | > 100 µM (inactive) |  | > 100 µM (inactive) | > 100 µM (inactive) | > 100 µM (inactive) | > 100 µM (inactive) | > 100 µM (inactive) | > 100 µM (inactive) | > 100 µM (inactive) | > 100 µM (inactive) |
| C=CCSc1nn(CC=C)cc2ncnc1-2 | > 100 µM (inactive) | > 100 µM (inactive) | > 100 µM (inactive) | > 100 µM (inactive) | > 100 µM | > 100 µM (inactive) | > 100 µM (inactive) | > 100 µM (inactive) | > 100 µM (inactive) |  | > 100 µM (inactive) | > 100 µM (inactive) | > 100 µM (inactive) | > 100 µM (inactive) | > 100 µM (inactive) | > 100 µM (inactive) | > 100 µM (inactive) |  |  |
